Experimental data: PMC5650142, “GPR40 partial agonists and AgoPAMs: Differentiating effects on glucose and hormonal secretions in the rodent” (PLoS ONE, 2017)
Several values for one entry are separate records, joined by “and”; a condition that tells them apart may be missing. Equal values may be shown once. Read-outs that look alike come from different tables or passages of the source.

Columns and labels:
human GPR40 [1] = target: T1, human GPR40 (Homo sapiens, UniProt O14842); experiment: GPR40 binding assay, partial agonist tracer [3H]L358; parameters: expressed in transfected cells; host or cells: CHO / CHO-K1 cells, membrane preparation; conditions: for Binding Results, % in parentheses, [^3H]L-358: maximal % (not defined); for binding of [^3H]L358: human GPR40 membranes, competition binding;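 on %Bound: 100% is tracer binding with DMSO alone and 0% is full displacement by a standard compound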
T1 sequence (O14842 whole entry): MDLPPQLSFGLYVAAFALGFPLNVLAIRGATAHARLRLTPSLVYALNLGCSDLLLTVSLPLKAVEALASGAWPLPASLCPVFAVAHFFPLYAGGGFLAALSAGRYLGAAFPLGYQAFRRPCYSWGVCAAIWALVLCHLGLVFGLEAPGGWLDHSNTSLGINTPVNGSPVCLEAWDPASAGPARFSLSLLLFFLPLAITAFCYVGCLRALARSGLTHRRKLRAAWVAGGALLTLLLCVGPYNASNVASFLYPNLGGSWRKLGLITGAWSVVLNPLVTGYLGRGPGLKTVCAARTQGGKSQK
Description: Two small molecule tracers, the partial agonist [3H][…] and the AgoPAM [3H]25, are used to measure compound affinity at each site as described previously. Because of the allosteric coupling of the two sites and the nature of the assay, addition of a compound will either displace (binds to same site) or augment (binds to allosterically coupled site) radiotracer. Membranes expressing GPR40 were prepared from CHO cells stably expressing human GPR40. […] Sigma P8830) and were homogenized in 50 ml aliquots with a motor-driven glass Dounce homogenizer, 15 strokes at 1900 rpm on wet ice, repeating once. Homogenates were centrifuged at 2200 rpm for 10 min at 4°C. Supernatants were carefully removed and pooled. Homogenization and centrifugation were repeated until the debris pellet was translucent to maximize membrane recovery. Supernatants were then centrifuged at […] rpm for 20 min. at 4°C. […] Protein concentration was determined by Pierce BCA kit. […] The beads and membrane mixture is then vigorously mixed for 30 minutes at room temperature prior to addition to the assay. […] Next, 15 μl of the radioligand and 35 μl of the beads/membranes solution is added to each well. The assay plates are then sealed and incubated for 30 minutes at room temperature on an orbital shaker. The plates are allowed to settle for 16 hours and then counted on a TopCount scintillation counter (PE). […] Maximal % bound and IC50 are then determined for each test compound. 5 μg/well membrane together with 200 μg/well of PVT WGA SPA beads (GE #RPNG-0001) were suspended in a white 96 well plate with a final concentration of 50 μl/well in assay buffer (50 mM Tris, 10 mM MgCl2, and 2 mM EDTA). […] The plate is briefly mixed and incubated for 3-18 h at room temperature, before it is read on a MicroBeta plate counter (Perkin Elmer, MS, USA).

mouse GPR40 = target: T2, mouse GPR40 (Mus musculus, UniProt Q76JU9); experiment: Mouse GPR40 IP1 accumulation assay; format: cell-based; conditions: for Efficacy (% Activation), Mouse: maximal % activity vs in-house partial agonist control
T2 construct: expressed in transfected cells; host or cells: CHO-K1 (methods)
T2 sequence (Q76JU9 whole entry): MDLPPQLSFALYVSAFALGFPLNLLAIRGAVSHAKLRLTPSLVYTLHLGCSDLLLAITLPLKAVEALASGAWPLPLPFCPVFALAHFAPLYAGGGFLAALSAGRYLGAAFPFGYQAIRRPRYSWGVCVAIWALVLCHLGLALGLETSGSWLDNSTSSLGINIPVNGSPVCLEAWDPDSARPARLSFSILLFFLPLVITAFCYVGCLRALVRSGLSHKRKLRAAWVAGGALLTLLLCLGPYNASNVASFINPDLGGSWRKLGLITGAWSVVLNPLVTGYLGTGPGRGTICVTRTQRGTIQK
Description: (§1) Stable cell lines expressing human GPR40 (hGPR40/HEK293), mouse GPR40 (mGPR40/CHO-K1), and rat GPR40 (rGPR40/CHO-K1) were cultured in DMEM media supplemented with 10% FBS, glutamine, non-essential amino acids, and penicillin/streptomycin. hGPR40/HEK293 & mGPR40/CHO-K1 cell media was supplemented with […] G418 (Life Technologies), while rGPR40/CHO-K1 cells were grown in […] blasticidin plus […] hygromycin (Life Technologies). Cell stocks were maintained and grown in a sub-confluent state using standard cell culture procedures. The day before the experiment, the cells were harvested with non-enzymatic cell dissociation buffer and re-suspended in DMEM supplemented with 10% FBS, glutamine, non-essential amino acids, penicillin/streptomycin at 0.15, 0.2 and 0.3 million cells per ml for human, mouse, and rat GPR40, respectively. […] The seeded plates were incubated overnight at 37 C.
(§2) On the day of the experiment, the growth media was removed from the assay by gently patting the assay plates on an absorbent sheet and 10 μl of IP1 stimulation buffer (Cis Bio IP-one Tb HTRF kit) supplemented with 50 mM LiCl is added to each well. Test compounds dissolved in DMSO were serially diluted in ½ log increments starting from 2 mM or 0.2 mM and 50 nl of the compound dilution was acoustically added to each well (final starting concentration 10 μM or 1 μM). Plates were then incubated for 60 minutes at room temperature and 10 μl of detection buffer (prepared as described in the Tb kit) is added to each well. The plates are then incubated one additional hour at room temperature. […] For each assay, a standard curve plate in which IP1 is titrated is also included. […] The percent activity at each concentration of test compound is determined using 0% activation (basal activity) determined in those wells that contain DMSO alone, while 100% activity is determined in wells that contained a concentration of a partial allosteric agonist know to activate GPR40. The % activity is then plotted versus the concentration of test compound and the dose response curve fitted to a standard 4-parameter non-linear regression model using a custom in-house developed software package (Merck & Co., Inc., MRL, Kenilworth, NJ, USA). Maximal % activity and EC50 are then determined for each test compound.

rat GPR40 = target: T3, rat GPR40 (Rattus norvegicus, UniProt Q8K3T4); experiment: Rat GPR40 IP1 accumulation assay; format: cell-based; conditions: for Efficacy (% Activation), Rat: maximal % activity vs in-house partial agonist control
T3 construct: expressed in transfected cells; host or cells: CHO-K1 (methods)
T3 sequence (Q8K3T4 whole entry): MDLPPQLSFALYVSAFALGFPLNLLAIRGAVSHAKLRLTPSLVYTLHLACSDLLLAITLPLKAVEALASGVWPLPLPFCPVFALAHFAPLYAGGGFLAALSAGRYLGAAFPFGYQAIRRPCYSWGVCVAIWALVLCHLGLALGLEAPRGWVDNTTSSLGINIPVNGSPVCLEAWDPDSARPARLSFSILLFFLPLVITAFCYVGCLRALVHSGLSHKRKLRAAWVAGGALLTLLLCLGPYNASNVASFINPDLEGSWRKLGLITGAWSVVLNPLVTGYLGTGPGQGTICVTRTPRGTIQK
Description: as §1, §2

human GPR40 [2] = target: T1, human GPR40; experiment: Human GPR40 IP1 accumulation assay; format: cell-based; parameters: expressed in transfected cells; conditions: for Efficacy (% Activation), Human: maximal % activity vs in-house partial agonist control
Description: as §1, §2

[3] = mean ± SD, n = 2–20, IP accumulation, read-out: Potency [EC50, nM] ± SD, Mouse
[4] = mean ± SD, n = 2–20, IP accumulation, read-out: Potency [EC50, nM] ± SD, Rat
[5] = radioligand L-001533358, dose 0.318285 nM
[6] = radioligand L-001533358, dose 1.00578 nM
[7] = radioligand L-001533358, dose 3.17827 nM
[8] = radioligand L-001533358, dose 10.0433 nM
[9] = radioligand L-001533358, dose 31.7369 nM
[10] = radioligand L-001533358, dose 100.289 nM
[11] = radioligand L-001533358, dose 316.912 nM
[12] = radioligand L-001533358, dose 1001.44 nM
[13] = radioligand L-001533358, dose 3164.56 nM
[14] = radioligand L-001533358, dose 10000 nM

SMILES: O=C1NC(=O)C(C2CCOc3cc(Oc4ccc(C(F)(F)F)cc4Cl)ccc32)S1 (centres unmarked) [MK-2305, reference compound]
- Binding Results, % in parentheses, [^3H]L-358 (human GPR40 [1]; WT human GPR40): (108%)
- IC50 (human GPR40 [1]; WT human GPR40, n = 2–13, read-out: Binding Results [IC50, nM], [^3H]L-358): 17 ± 4.7 nM
- binding of [^3H]L358 (human GPR40 [1]): displace
- Efficacy (% Activation), Mouse (mouse GPR40): (157%)
- EC50 (mouse GPR40; [3]): 2.6 ± 0.8 nM
- Efficacy (% Activation), Rat (rat GPR40): (155%)
- EC50 (rat GPR40; [4]): 5.2 ± 2.5 nM
- Efficacy (% Activation), Human (human GPR40 [2]): (85%)
- EC50 (human GPR40 [2]; mean ± SD, n = 2–20, IP accumulation, read-out: Potency [EC50, nM] ± SD, Human): 24 ± 13 nM

SMILES: Cc1cc(OCCCS(C)(=O)=O)cc(C)c1-c1cccc(COc2ccc3c(c2)OC[C@H]3CC(=O)O)c1 [TAK-875, reference compound]
- HUMAN GPR40 Binding Data %Act (human GPR40 [1]; TAK875 sheet, individual replicates (n), tracer not given): 92% and 91% and 95% and 87% and 103% and 89% and 72% and 84% and 93% and 94%
- Binding Results, % in parentheses, [^3H]L-358 (human GPR40 [1]; WT human GPR40): (91%)
- binding of [^3H]L358 (human GPR40 [1]): displace
- % Bound Normalized to 100 (human GPR40 [1]; [5]): 100.25%
- %Bound (human GPR40 [1]; [5]): 75.22%
- inhibition at 0.000318285 µM (human GPR40 [1]; [5]): 15.4%
- % Bound Normalized to 100 (human GPR40 [1]; [6]): 73.95%
- %Bound (human GPR40 [1]; [6]): 48.92%
- inhibition at 0.00100578 µM (human GPR40 [1]; [6]): 31.9%
- % Bound Normalized to 100 (human GPR40 [1]; [7]): 83.61%
- %Bound (human GPR40 [1]; [7]): 58.58%
- inhibition at 0.00317827 µM (human GPR40 [1]; [7]): 49.3%
- % Bound Normalized to 100 (human GPR40 [1]; [8]): 73.41%
- %Bound (human GPR40 [1]; [8]): 48.38%
- inhibition at 0.0100433 µM (human GPR40 [1]; [8]): 73.5%
- % Bound Normalized to 100 (human GPR40 [1]; [9]): 43.62%
- %Bound (human GPR40 [1]; [9]): 18.59%
- inhibition at 0.0317369 µM (human GPR40 [1]; [9]): 84.4%
- % Bound Normalized to 100 (human GPR40 [1]; [10]): 17.05%
- %Bound (human GPR40 [1]; [10]): -7.97%
- inhibition at 0.100289 µM (human GPR40 [1]; [10]): 102%
- % Bound Normalized to 100 (human GPR40 [1]; [11]): 19.20%
- %Bound (human GPR40 [1]; [11]): -5.83%
- inhibition at 0.316912 µM (human GPR40 [1]; [11]): 111%
- % Bound Normalized to 100 (human GPR40 [1]; [12]): 13.56%
- %Bound (human GPR40 [1]; [12]): -11.46%
- inhibition at 1.00144 µM (human GPR40 [1]; [12]): 105%
- % Bound Normalized to 100 (human GPR40 [1]; [13]): 20.27%
- %Bound (human GPR40 [1]; [13]): -4.75%
- inhibition at 3.16456 µM (human GPR40 [1]; [13]): 111%
- % Bound Normalized to 100 (human GPR40 [1]; [14]): 28.06%
- %Bound (human GPR40 [1]; [14]): 3.03%
- inhibition at 10 µM (human GPR40 [1]; [14]): 109%
- Mouse GPR40 Receptor Activation (%) (mouse GPR40; dose 1.20E-10 M): -5.6%
- Mouse GPR40 Receptor Activation (%) (mouse GPR40; dose 1.99E-06 M): 140%
- Mouse GPR40 Receptor Activation (%) (mouse GPR40; dose 1.99E-07 M): 129%
- Mouse GPR40 Receptor Activation (%) (mouse GPR40; dose 1.99E-08 M): 125%
- Mouse GPR40 Receptor Activation (%) (mouse GPR40; dose 2.00E-09 M): 44%
- Mouse GPR40 Receptor Activation (%) (mouse GPR40; dose 5.98E-07 M): 147%
- Mouse GPR40 Receptor Activation (%) (mouse GPR40; dose 5.98E-08 M): 122%
- Mouse GPR40 Receptor Activation (%) (mouse GPR40; dose 5.99E-09 M): 87%
- Mouse GPR40 Receptor Activation (%) (mouse GPR40; dose 5.99E-10 M): 23%
- Mouse GPR40 Functional Assay %Act (mouse GPR40; individual replicates (n)): 131% and 140% and 174% and 156% and 154% and 110% and 134% and 185% and 133% and 107% and 152%
- EC50 (mouse GPR40; individual replicates (n), read-out: Mouse GPR40 Functional Assay EC50): 2.6 nM and 3.1 nM and 3.4 nM and 4.3 nM and 4.6 nM and 5.4 nM and 5.5 nM and 6.5 nM and 6.9 nM and 8.2 nM and 1.6 nM and 1.9 nM
- Efficacy (% Activation), Mouse (mouse GPR40): (145%)
- EC50 (mouse GPR40; [3]): 4.4 ± 2.1 nM
- Rat GPR40 Receptor Activation (%) (rat GPR40; dose 1.20E-10 M): -1.85%
- Rat GPR40 Receptor Activation (%) (rat GPR40; dose 1.99E-06 M): 186%
- Rat GPR40 Receptor Activation (%) (rat GPR40; dose 1.99E-07 M): 172%
- Rat GPR40 Receptor Activation (%) (rat GPR40; dose 1.99E-08 M): 148%
- Rat GPR40 Receptor Activation (%) (rat GPR40; dose 2.00E-09 M): 65%
- Rat GPR40 Receptor Activation (%) (rat GPR40; dose 5.98E-07 M): 173%
- Rat GPR40 Receptor Activation (%) (rat GPR40; dose 5.98E-08 M): 144%
- Rat GPR40 Receptor Activation (%) (rat GPR40; dose 5.99E-09 M): 117%
- Rat GPR40 Receptor Activation (%) (rat GPR40; dose 5.99E-10 M): 23%
- Rat GPR40 Functional Assay %Act (rat GPR40; individual replicates (n)): 129% and 176% and 138% and 164% and 159% and 199% and 148% and 141% and 177% and 150%
- EC50 (rat GPR40; individual replicates (n), read-out: Rat GPR40 Functional Assay EC50): 5.5 nM and 6.1 nM and 8.7 nM and 9.9 nM and 11.6 nM and 12.4 nM and 13.4 nM and 3.2 nM and 2.7 nM and 4.1 nM
- Efficacy (% Activation), Rat (rat GPR40): (158%)
- EC50 (rat GPR40; [4]): 7.8 ± 4 nM
- Human GPR40 Receptor Activation (%) (human GPR40 [2]; dose 2.00E-06 M): 100%
- Human GPR40 Receptor Activation (%) (human GPR40 [2]; dose 2.00E-07 M): 90%
- Human GPR40 Receptor Activation (%) (human GPR40 [2]; dose 2.00E-08 M): 81%
- Human GPR40 Receptor Activation (%) (human GPR40 [2]; dose 2.00E-09 M): 31%
- Human GPR40 Receptor Activation (%) (human GPR40 [2]; dose 2.00E-10 M): -1.34%
- Human GPR40 Receptor Activation (%) (human GPR40 [2]; dose 6.00E-07 M): 95%
- Human GPR40 Receptor Activation (%) (human GPR40 [2]; dose 6.00E-08 M): 98%
- Human GPR40 Receptor Activation (%) (human GPR40 [2]; dose 6.00E-09 M): 48%
- Human GPR40 Receptor Activation (%) (human GPR40 [2]; dose 6.00E-10 M): 16%
- Human GPR40 Receptor Activation (%) (human GPR40 [2]; dose 6.00E-11 M): 3.69%
- HUMAN GPR40 Functional Assay %Act (human GPR40 [2]; individual replicates (n)): 122% and 82% and 93% and 96% and 99% and 104% and 130% and 79%
- Efficacy (% Activation), Human (human GPR40 [2]): (102%)
